Several values for one entry are separate records, joined by “and”; a condition that tells them apart may be missing. Identical values can stand only once. Marks after values point to notes of the source that are not given here.
Key:
Type in all cases: cell-based
A. actinomycetemcomitans = assay: Multi-species biofilm composition, absolute abundance (Geq/mL); settings: repeated rinsing
Protocol: (§1) Biofilms are grown vertically on Calcium Deficient Hydroxyapatite (CAD-HA) disks (Hitemco Medical, Old Bethpage, USA) using the Amsterdam Active Adhesion model. Biofilms are allowed to establish during 24 h (37° C., 170 rpm) under microaerophilic conditions (6% O2, 7% CO2, 7% H2, 80% N2). After this 24 h, disks are rinsed 3 times a day for 3 minutes (RT, 250 rpm), for 3 consecutive days, by transferring the lid containing the disks to a new 24-well plate containing 2 mL/well of the appropriate substrate solution. As a negative control, PBS (pH 5.7) without substrate supplementation is used.
(§2) N-acetyl-D-glucosamine (NADG), α-D-lactose, D-(+)-trehalose and D-(+)-raffinose are selected to determine their effects on multi-species biofilm composition. Repeated rinsing of the biofilms with the substrates at a concentration of 1 M results in a significant decrease in absolute numbers in at least four of the pathogenic bacterial species tested in the assay, in comparison to the control, the results of which are described in Table 1 below. Note, NADG decreased absolute numbers of S. sobrinus. Absolute abundances of bacterial species are shown as mean ± SD (n = 3) logarithmic values of the genome equivalents per millilitre (log(Geq/mL)).

A. naeslundii = assay: as above; settings: repeated rinsing
Protocol: as §1, §2

P. gingivalis = assay: as above; settings: repeated rinsing
Protocol: as §1, §2

P. intermedia = assay: as above; settings: repeated rinsing
Protocol: as §1, §2

S. gordonii = assay: as above; settings: repeated rinsing
Protocol: as §1, §2

S. mitis = assay: as above; settings: repeated rinsing
Protocol: as §1, §2

S. oralis = assay: as above; settings: repeated rinsing
Protocol: as §1, §2

S. sobrinus = assay: as above; settings: repeated rinsing
Protocol: as §1, §2

multi-species biofilms = assay: Organic acid levels in supernatant of multi-species biofilms (ion chromatography); settings: >0 production, <0 consumption, n = 3
Protocol: as §1
Levels of organic acids in the filter sterilized supernatant of the multi-species biofilms are measured using a 761 Compact Ion Chromatograph (Metrhohm, Switzerland) with a Metrosep Organic acids Guard/4.6 guard column. The supernatants from the substrate-treated multi-species biofilms are analyzed to gain more insight into the influence of the substrates on organic acid consumption/production.

[1] = tested on: A. actinomycetemcomitans virulence genes; assay: Virulence gene expression in multi-species biofilm (SYBR RT-qPCR)
Protocol: as §1
(§3) The virulence of the substrate-treated multi-species biofilms are evaluated by analyzing the relative expression of 33 genes that are recognized as being related to some form of virulence and from 4 periodontal pathogens.
(§4) Expression of bacterial virulence genes is analyzed through SYBR RT-qPCR and normalized for bacterial housekeeping gene expression. […] These effects are illustrated in Tables 6a and 6b:
(§5) Note, for Tables 6a and 6b, that fold changes in virulence gene expression are determined relative to the control condition through the 2^^-ΔΔCt method and are shown as the geometric mean (C.I.) (n = 3) of the 2^^-ΔΔ ^Ct values. All substrates are dissolved in PBS at a concentration of 1 M (upper part) or 1%(w/v) (lower part). Values between 0 and 1 represent relative downregulation, values >1 represent relative upregulation. […] NADG: N-acetyl-D-glucosamine; C.I.: 95% confidence interval.

[2] = tested on: P. gingivalis virulence genes; assay: as above; settings: for fold change in fimA expression, geometric mean (95% C.I.) / fold change in kgp expression, geometric mean (95% C.I.) / fold change in partC expression, geometric mean (95% C.I.) / fold change in rgpA expression, geometric mean (95% C.I.): relative to control, 2^-ΔΔCt, n = 3
Protocol: as §1, §3, §4, §5

[3] = tested on: F. nucleatum virulence genes; assay: as above; settings: for fold change in ABC transp. perm. (ABC transporter permease) expression, geometric mean (95% C.I.) / fold change in EF-G expression, geometric mean (95% C.I.) / fold change in but. -coA transf. (butyrate-acetoacetate CoA-transferase) expression, geometric mean (95% C.I.) / fold change in hemin receptor expression, geometric mean (95% C.I.) / fold change in hemolysin expression, geometric mean (95% C.I.) / fold change in ompA expression, geometric mean (95% C.I.) / fold change in transposase expression, geometric mean (95% C.I.): relative to control = 1, 2^-ΔΔCt, n = 3
Protocol: as §1, §3, §4
as §5, with “Table 6c,” for “Tables 6a and 6b, that”, “2^^-ΔΔCt” for “2^^-ΔΔ ^Ct”

[4] = lower part of Table 6a, substrate 1%(w/v), relative to control = 1
[5] = substrate 1 M, relative to control = 1, 2^-ΔΔCt, n = 3

## CC(=O)N[C@H]1C(O)O[C@H](CO)[C@@H](O)[C@@H]1O (stereo partly drawn) [NADG, N-acetyl-D-glucosamine]
A. actinomycetemcomitans; substrate 1% (w/v)
  absolute abundance of A. actinomycetemcomitans (Aa), mean ± SD log (Geq/mL): 9.11 ± 0.2 log (Geq/mL)
A. actinomycetemcomitans; substrate 1 M in PBS, n = 3
  absolute abundance of A. actinomycetemcomitans (Aa), mean ± SD log (Geq/mL): 8.15 ± 0.21^∗ log (Geq/mL)
A. naeslundii; substrate 1% (w/v)
  absolute abundance of A. naeslundii (An), mean ± SD log (Geq/mL): 7.71 ± 0.12 log (Geq/mL)
A. naeslundii; substrate 1 M in PBS, n = 3
  absolute abundance of A. naeslundii (An), mean ± SD log (Geq/mL): 5.41 ± 0.31^∗ log (Geq/mL)
P. gingivalis; substrate 1% (w/v)
  absolute abundance of P. gingivalis (Pg), mean ± SD log (Geq/mL): 7.14 ± 0.28 log (Geq/mL)
P. gingivalis; substrate 1 M in PBS, n = 3
  absolute abundance of P. gingivalis (Pg), mean ± SD log (Geq/mL): 4.43 ± 0.14^∗ log (Geq/mL)
P. intermedia; substrate 1% (w/v)
  absolute abundance of P. intermedia (Pi), mean ± SD log (Geq/mL): 8.17 ± 0.22 log (Geq/mL)
P. intermedia; substrate 1 M in PBS, n = 3
  absolute abundance of P. intermedia (Pi), mean ± SD log (Geq/mL): 4.09 ± 0.16^∗ log (Geq/mL)
S. gordonii; substrate 1% (w/v)
  absolute abundance of S. gordonii, mean ± SD log (Geq/mL): 8.33 ± 0.06 log (Geq/mL)
S. gordonii; substrate 1 M in PBS, n = 3
  absolute abundance of S. gordonii, mean ± SD log (Geq/mL): 9.80 ± 0.22^∗ log (Geq/mL)
S. mitis; substrate 1% (w/v)
  absolute abundance of S. mitis, mean ± SD log (Geq/mL): 2.65 ± 0.00 log (Geq/mL)
S. mitis; substrate 1 M in PBS, n = 3
  absolute abundance of S. mitis, mean ± SD log (Geq/mL): 3.38 ± 1.04 log (Geq/mL)
S. oralis; substrate 1% (w/v)
  absolute abundance of S. oralis, mean ± SD log (Geq/mL): 7.11 ± 0.14 log (Geq/mL)
S. oralis; substrate 1 M in PBS, n = 3
  absolute abundance of S. oralis, mean ± SD log (Geq/mL): 7.96 ± 0.59 log (Geq/mL)
S. sobrinus; substrate 1% (w/v)
  absolute abundance of S. sobrinus, mean ± SD log (Geq/mL): 4.87 ± 0.22 log (Geq/mL)
S. sobrinus; substrate 1 M in PBS, n = 3
  absolute abundance of S. sobrinus, mean ± SD log (Geq/mL): 3.46 ± 0.19^∗ log (Geq/mL)
multi-species biofilms; substrate 1% (w/v)
  acetate level in biofilm supernatant, mean ± SD: 379 ± 10 mg/L
  butyrate level in biofilm supernatant, mean ± SD: 2238 ± 59 mg/L
  formate level in biofilm supernatant, mean ± SD: 4315 ± 198 mg/L
  lactate level in biofilm supernatant, mean ± SD: -125 ± 0 mg/L
  propionate level in biofilm supernatant, mean ± SD: 2205 ± 89 mg/L
multi-species biofilms; substrate 1 M
  acetate level in biofilm supernatant, mean ± SD: 3815 ± 77 mg/L
  butyrate level in biofilm supernatant, mean ± SD: 1255±51 mg/L and 1255 ± 51^∗ mg/L
  formate level in biofilm supernatant, mean ± SD: 352 ± 18 mg/L
  lactate level in biofilm supernatant, mean ± SD: -125 ± 0 mg/L
  propionate level in biofilm supernatant, mean ± SD: 2750±40 mg/L and 2750 ± 40^∗ mg/L
[1]; [4]
  fold change in aae expression, geometric mean (95% C.I.): 1.55 (1.18-2.03) fold
  fold change in apaH expression, geometric mean (95% C.I.): 0.73 (0.41-1.29) fold
  fold change in cdtB expression, geometric mean (95% C.I.): 1.05 (0.61-1.81) fold
  fold change in emaA expression, geometric mean (95% C.I.): 0.68 (0.15-3.07) fold
  fold change in flp expression, geometric mean (95% C.I.): 0.54 (0.19-1.56) fold
  fold change in ltxA expression, geometric mean (95% C.I.): 0.4 (0.11-1.39) fold
  fold change in omp29 expression, geometric mean (95% C.I.): 0.77 (0.69-0.87) fold
  fold change in omp100 expression, geometric mean (95% C.I.): 0.71 (0.42-1.18) fold
  fold change in orf859 expression, geometric mean (95% C.I.): 1.99 (0.94-4.22)* fold
  fold change in pgA expression, geometric mean (95% C.I.): 1.07 (0.29-3.97) fold
  fold change in vapA expression, geometric mean (95% C.I.): 0.65 (0.48-0.86) fold
  fold change in vppA expression, geometric mean (95% C.I.): 0.28 (0.09-0.86)* fold
[1]; [5]
  fold change in aae expression, geometric mean (95% C.I.): 0.24 (0.18-0.33)^∗ fold
  fold change in apaH expression, geometric mean (95% C.I.): 0.08 (0.02-0.29)^∗ fold
  fold change in cdtB expression, geometric mean (95% C.I.): 0.04 (0.01-0.20)* fold
  fold change in emaA expression, geometric mean (95% C.I.): 0.29 (0.07-1.20)* fold
  fold change in flp expression, geometric mean (95% C.I.): 2.40 (0.67-8.67) fold
  fold change in ltxA expression, geometric mean (95% C.I.): 0.01 (0.00-0.20)* fold
  fold change in omp29 expression, geometric mean (95% C.I.): 0.19 (0.09-0.38)* fold
  fold change in omp100 expression, geometric mean (95% C.I.): 0.03 (0.01-0.05)* fold
  fold change in orf859 expression, geometric mean (95% C.I.): 0.13 (0.05-0.36)* fold
  fold change in pgA expression, geometric mean (95% C.I.): 11.6 (3.23-41.74)* fold
  fold change in vapA expression, geometric mean (95% C.I.): 1.00 (0.58-1.75) fold
  fold change in vppA expression, geometric mean (95% C.I.): 0.49 (0.41-0.59) fold
[2]; substrate 1% (w/v)
  downregulation of P. gingivalis partC expression: approximately 2.8 fold
[2]; substrate 1 % (w/v)
  fold change in fimA expression, geometric mean (95% C.I.): 1.15 (0.32-4.06) fold
  fold change in kgp expression, geometric mean (95% C.I.): 1.81 (0.44-7.50) fold
  fold change in partC expression, geometric mean (95% C.I.): 0.36 (0.08-1.68)^∗ fold
  fold change in rgpA expression, geometric mean (95% C.I.): 1.31 (1.03-1.66) fold
[2]; substrate 1 M
  fold change in fimA expression, geometric mean (95% C.I.): 0.79 (0.44-1.39) fold
  fold change in kgp expression, geometric mean (95% C.I.): 0.07 (0.04-0.13)^∗ fold
  fold change in partC expression, geometric mean (95% C.I.): 0.19 (0.13-0.28)^∗ fold
  fold change in rgpA expression, geometric mean (95% C.I.): 0.39 (0.18-0.84) fold
[3]; substrate 1% (w/v)
  fold change in ABC transp. perm. (ABC transporter permease) expression, geometric mean (95% C.I.): 0.33 (0.12-0.87)^∗ fold
  fold change in EF-G expression, geometric mean (95% C.I.): 0.10 (0.02-0.45)^∗ fold
  fold change in but. -coA transf. (butyrate-acetoacetate CoA-transferase) expression, geometric mean (95% C.I.): 0.21 (0.11-0.39)^∗ fold
  fold change in hemin receptor expression, geometric mean (95% C.I.): 0.19 (0.02-1.67)^∗ fold
  fold change in hemolysin expression, geometric mean (95% C.I.): 0.79 (0.30-2.04) fold
  fold change in ompA expression, geometric mean (95% C.I.): 0.74 (0.18-2.98) fold
  fold change in transposase expression, geometric mean (95% C.I.): 0.98 (0.18-5.39) fold
[3]; substrate 1 M
  upregulation of F. nucleatum virulence gene expression, range over genes: more limited and only significant for 2 genes
  fold change in ABC transp. perm. (ABC transporter permease) expression, geometric mean (95% C.I.): 3.33 (2.53-4.39)^∗ fold
  fold change in EF-G expression, geometric mean (95% C.I.): 1.45 (0.93-2.26) fold
  fold change in but. -coA transf. (butyrate-acetoacetate CoA-transferase) expression, geometric mean (95% C.I.): 1.21 (0.99-1.49) fold
  fold change in hemin receptor expression, geometric mean (95% C.I.): 3.26 (2.24-4.76)^∗ fold
  fold change in hemolysin expression, geometric mean (95% C.I.): 1.90 (1.29-2.79) fold
  fold change in ompA expression, geometric mean (95% C.I.): 1.33 (0.78-2.25) fold
  fold change in transposase expression, geometric mean (95% C.I.): 1.27 (0.68-2.37) fold

Reference: patent US20230346670A1, “Prebiotic Oral Care Compositions and Methods” (Colgate-Palmolive Company, priority 2020, published 2023)
